Laboratory results: ChEMBL document CHEMBL1201862, “PubChem BioAssay data set” (2004)
Active and inactive are the calls of the source.

Assays:
[1] = luciferase reporter signal reduction – luminescence, H4-C neuroglioblastoma cells, dose response (AID 2458); format: functional, cell-based;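 also: H4 neuroglioblastoma cells stably carrying a luciferase reporter gene fusion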
[2] = inhibitors of SNCA 5'UTR-driven translation, confirmation, luminescence, H4 neuroglioblastoma cells, dose confirmation (AID 2454); format: functional, cell-based;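 also: H4 neuroglioblastoma cells carrying an alpha-synuclein 5'UTR luciferase reporter; potency for inhibition of the luciferase signal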
[3] = inhibitors of SNCA 5'UTR-driven reporter translation, confirmation, H4 neuroglioma cells, luminescence (AID 1988); format: functional, cell-based
[4] = cytotoxicity in HEK-293T cells, dose response, cytotoxicity control for BCR NF-kB inhibitor project, luminescence, B-cell screen hits (AID 489021); format: functional, cell-based;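 also: HEK-293T cells carrying an NF-kB luciferase reporter; cells exposed to compound for about 14 hours before viability readout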
[5] = Luminescence Cell-Based Dose Response HTS to Identify Inhibitors of 5'UTR Stem-Loop Driven Prion Protein mRNA Translation in H4 Neuroglioblastoma Cells. [Related pubchem assays: 1827 (Project Summary), 1813 (Primary HTS)]; format: functional
[6] = cells; format: functional, cell-based
[7] = C. albicans growth with fluconazole, confirmation, fluorescence, retest (AID 2467); format: functional, cell-based
[8] = Luminescence Cell-Based Dose Retest to Confirm Inhibitors of Cancer Stem Cells. [Related pubchem assays (depositor defined):AID2717, AID2721]; format: functional; conditions: Homo sapiens
[9] = A cytotoxicity screen of small molecule inhibitors of the PhoP region in Salmonella typhi identified in the primary screen. [Related pubchem assays: 1850, 1864, 1985 ]; format: functional
[10] = NIH-3T3 fibroblast cytotoxicity, dose response, cytotoxicity control, cell-based, fluorescence, Alamar Blue, secondary assay (AID 2327); format: functional;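 also: NIH-3T3 mouse fibroblasts cultured with fluconazole at 8 µg/mL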
[11] = biological target: Beta-galactosidase (Escherichia coli, UniProt Q8VNN2); experiment: beta-galactosidase enzyme inhibitors and activators, dose response, artefact control for CCR6 antagonist project, biochemical, E. coli enzyme, set 3 (AID 504712); format: functional
[12] = biological target: C-C chemokine receptor type 6 (Homo sapiens, UniProt P51684); experiment: CCR6 receptor antagonists, dose response, cell-based, luminescent beta-arrestin readout (AID 504728); format: functional
[13] = biological target: Polyadenylate-binding protein 1 (Homo sapiens, UniProt P11940); experiment: PABP poly(A) RNA binding inhibitors, primary screen, biochemical, fluorescence polarization, uHTS (AID 2014)
[14] = biological target: Eukaryotic translation initiation factor 4H (Homo sapiens, UniProt Q15056); experiment: human eIF4H binding inhibitors, primary screen, translation initiation inhibitor project, biochemical, uHTS, fluorescence polarization (AID 2012)
[15] = biological target: Photoreceptor-specific nuclear receptor (Homo sapiens, UniProt Q9Y5X4); format: functional;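 also: potency for compounds that break the NR2E3 corepressor complex and count as activators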
[16] = biological target: Peroxisome proliferator-activated receptor gamma/Nuclear receptor corepressor 2 (Homo sapiens, UniProt P37231+Q9Y618); format: functional
[17] = biological target: T1, Eukaryotic translation initiation factor 2-alpha kinase 3 (Homo sapiens, UniProt Q9NZJ5); experiment: Counterscreen assay for PERK inhibitors: Dose response cell-based high throughput screening assay to measure inhibition of PERK at 6 hours. [Related pubchem assays: 1522, 1416 ]; format: functional
[18] = biological target: T1, Eukaryotic translation initiation factor 2-alpha kinase 3; experiment: Dose response cell-based high-throughput screening assay to measure PERK inhibition. [Related pubchem assays: 1416 ]; format: functional
[19] = biological target: Cytochrome P450 2C9 (Homo sapiens, UniProt P11712); conditions: Potency
[20] = biological target: Cytochrome P450 2D6 (Homo sapiens, UniProt P10635); experiment: qHTS Assay for Inhibitors and Substrates of Cytochrome P450 2D6. [Related pubchem assays: 410 ]; format: ADME; conditions: read-out: Potency
[21] = inhibitors of firefly luciferase expression or activity, dose response, H4 neuroglioma cells, luminescence (AID 1990); format: functional, cell-based
[22] = biological target: T2, RNA-binding protein pos-1 (Caenorhabditis elegans, UniProt G5EF15); experiment: inhibitors of POS-1/mex-3 RNA binding, dose response, biochemical, fluorescence polarization (AID 1964);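 also: purified POS-1 fused to maltose binding protein made in E. coli; potency of compounds blocking POS-1 binding to fluorescent RNA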
T2 sequence (G5EF15 whole entry): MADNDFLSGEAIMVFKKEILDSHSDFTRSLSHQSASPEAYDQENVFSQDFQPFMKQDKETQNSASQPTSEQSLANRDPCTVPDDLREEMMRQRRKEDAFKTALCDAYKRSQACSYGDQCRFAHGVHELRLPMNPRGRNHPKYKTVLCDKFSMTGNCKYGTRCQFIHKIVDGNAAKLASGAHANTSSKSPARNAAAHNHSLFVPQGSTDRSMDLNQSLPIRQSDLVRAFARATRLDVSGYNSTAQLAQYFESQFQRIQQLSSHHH

[23] = biological target: T3, Zinc finger protein mex-5 (Caenorhabditis elegans, UniProt Q9XUB2); experiment: MEX-5/TCR-2 RNA interaction inhibitors, dose response, biochemical, C. elegans, fluorescence polarization (AID 1960)
T3 sequence (Q9XUB2 whole entry): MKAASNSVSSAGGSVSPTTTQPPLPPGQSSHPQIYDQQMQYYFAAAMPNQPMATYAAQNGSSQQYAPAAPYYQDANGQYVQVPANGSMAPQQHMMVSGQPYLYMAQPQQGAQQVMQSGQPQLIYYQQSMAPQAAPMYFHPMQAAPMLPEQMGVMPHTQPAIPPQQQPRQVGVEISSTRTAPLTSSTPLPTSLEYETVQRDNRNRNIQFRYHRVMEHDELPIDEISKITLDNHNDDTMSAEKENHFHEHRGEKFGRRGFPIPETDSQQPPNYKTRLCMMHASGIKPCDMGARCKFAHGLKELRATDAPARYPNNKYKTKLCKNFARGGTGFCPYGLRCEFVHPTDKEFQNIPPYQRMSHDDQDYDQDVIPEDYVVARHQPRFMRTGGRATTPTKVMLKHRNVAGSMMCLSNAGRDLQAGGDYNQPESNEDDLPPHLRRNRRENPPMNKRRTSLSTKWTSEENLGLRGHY

[24] = cells; format: functional
[25] = biological target: Serine/threonine-protein phosphatase PP1-alpha catalytic subunit (Homo sapiens, UniProt P62136); experiment: PP1 phosphatase inhibitors, dose response, biochemical, fluorescence (AID 2403);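 also: phosphatase turnover of OMFP into fluorescent 3-O-methylfluorescein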
[26] = test system: INS1; experiment: beta cell apoptosis inhibitors, cytokine rescue, dose response, luminescence, retest (AID 449756); format: functional, cell-based; conditions: Rattus norvegicus;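 also: cell death triggered by IL-1 beta plus TNF-alpha plus IFN-gamma mixture; protective hits raise ATP signal compared with cytokine alone wells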
[27] = THP-1 cell cytotoxicity, dose response, cytotoxicity control for non-replicating M. tuberculosis project (AID 489025); format: functional
[28] = biological target: Serine/threonine-protein phosphatase (Homo sapiens, UniProt Q9BPW0); experiment: Counterscreen for inhibitors of PP1: fluorescence-based biochemical high throughput dose response assay to identify inhibitors of Protein Phosphatase 5 (PP5). [Related pubchem assays: 2034 (Summary (PP5 inhibitors)), 1987 (PP5 inhibitors in singlate), 2235 (PP1 inhibitors in singlate)]
[29] = Vero E6 cell cytotoxicity, dose response, cytotoxicity control for non-replicating M. tuberculosis project, secondary assay (AID 492998); format: functional, VeroE6; conditions: Vero C1008
[30] = biological target: Guanyl-specific ribonuclease T1 (Aspergillus oryzae (strain ATCC 42149 / RIB 40), UniProt P00651); experiment: RNase T1 inhibitors, dose response, counter-screen for TPT1 inhibitor project, biochemical, fluorescence polarization, 1536-well (AID 2167)
[31] = biological target: Likely tRNA 2'-phosphotransferase (Candida albicans (strain SC5314 / ATCC MYA-2876) (Yeast), UniProt Q5A7N4); experiment: TPT1 tRNA phosphotransferase inhibitors, dose response, biochemical, fluorescence polarization (AID 2160)
[32] = biological target: T4, Alkaline phosphatase, tissue-nonspecific isozyme (Homo sapiens, UniProt P05186); experiment: TNAP enzyme inhibition by screening hits, dose response, selectivity assay for mouse IAP inhibitor project, biochemical, human TNAP, uHTS hits (AID 488906); format: functional
T4 sequence (P05186 whole entry): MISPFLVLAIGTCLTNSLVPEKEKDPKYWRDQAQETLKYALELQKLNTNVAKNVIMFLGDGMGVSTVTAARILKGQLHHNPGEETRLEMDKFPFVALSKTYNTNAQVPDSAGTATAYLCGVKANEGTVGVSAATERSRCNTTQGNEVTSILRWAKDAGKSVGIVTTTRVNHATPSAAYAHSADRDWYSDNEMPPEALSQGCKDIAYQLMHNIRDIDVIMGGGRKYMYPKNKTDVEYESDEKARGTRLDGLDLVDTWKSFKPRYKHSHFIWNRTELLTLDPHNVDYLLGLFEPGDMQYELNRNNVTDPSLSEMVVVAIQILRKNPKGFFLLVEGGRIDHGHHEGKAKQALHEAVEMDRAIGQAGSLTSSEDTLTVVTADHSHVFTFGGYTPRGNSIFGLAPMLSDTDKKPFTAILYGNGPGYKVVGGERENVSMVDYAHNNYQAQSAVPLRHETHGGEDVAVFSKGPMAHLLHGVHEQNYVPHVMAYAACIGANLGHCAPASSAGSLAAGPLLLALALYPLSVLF

[33] = biological target: Phospholipase A2 (Homo sapiens, UniProt P04054); format: functional;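 also: confirmatory dose-response counterscreen on phospholipase A2, testing hits that came from an ultra-high-throughput screen for ATG4B inhibitors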
[34] = biological target: Induced myeloid leukemia cell differentiation protein Mcl-1 (Homo sapiens, UniProt Q07820); format: functional
[35] = biological target: Intestinal-type alkaline phosphatase (Homo sapiens, UniProt P09923); experiment: activation of human intestinal alkaline phosphatase – biochemical, dose response (AID 488873); format: functional
[36] = biological target: Intestinal-type alkaline phosphatase (Mus musculus, UniProt P24822); experiment: PubChem AID 488785; format: functional
[37] = biological target: T5, Cysteine protease ATG4B (Homo sapiens, UniProt Q9Y4P1); format: functional;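 also: Fluorescence-based dose-response confirmation assay measuring inhibition of ATG4B activity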
T5 sequence (Q9Y4P1 whole entry): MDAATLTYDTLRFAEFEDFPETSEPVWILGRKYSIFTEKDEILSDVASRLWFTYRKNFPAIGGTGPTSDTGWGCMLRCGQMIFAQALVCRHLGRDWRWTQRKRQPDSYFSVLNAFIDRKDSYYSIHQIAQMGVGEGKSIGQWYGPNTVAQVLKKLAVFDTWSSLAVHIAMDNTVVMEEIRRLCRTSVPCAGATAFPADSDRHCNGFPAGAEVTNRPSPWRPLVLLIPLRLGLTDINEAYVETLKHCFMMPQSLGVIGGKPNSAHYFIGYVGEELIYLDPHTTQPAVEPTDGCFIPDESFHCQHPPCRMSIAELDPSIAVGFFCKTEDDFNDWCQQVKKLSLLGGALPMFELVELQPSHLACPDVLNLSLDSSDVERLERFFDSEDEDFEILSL

[38] = biological target: T6, SUMO-activating enzyme (Homo sapiens, UniProt Q9UBT2); experiment: SUMOylation inhibitor hit validation, confirmation, SUMOylation inhibitor project, biochemical, AlphaScreen (AID 2018); format: functional
[39] = biological target: T6, SUMO-activating enzyme; experiment: inhibitors of in vitro SUMOylation cascade, primary screen, biochemical, HTRF, uHTS (AID 2006); format: protein-complex assay
[40] = biological target: T4, Alkaline phosphatase, tissue-nonspecific isozyme
[41] = biological target: Wee1-like protein kinase (Homo sapiens, UniProt P30291); experiment: Dose Response Cell-based Assay for Inhibitors of Wee1 Degradation. [Related pubchem assays: 1410, 1321 ]; format: functional
[42] = biological target: G2/mitotic-specific cyclin-B1 (Homo sapiens, UniProt P14635); experiment: Counterscreen assay for inhibitors of Wee1 degradation: dose response cell-based assay to identify inhibitors of cyclin B degradation. [Related pubchem assays: 1410, 1321 ]; format: functional

T6 sequence (Q9UBE0 whole entry): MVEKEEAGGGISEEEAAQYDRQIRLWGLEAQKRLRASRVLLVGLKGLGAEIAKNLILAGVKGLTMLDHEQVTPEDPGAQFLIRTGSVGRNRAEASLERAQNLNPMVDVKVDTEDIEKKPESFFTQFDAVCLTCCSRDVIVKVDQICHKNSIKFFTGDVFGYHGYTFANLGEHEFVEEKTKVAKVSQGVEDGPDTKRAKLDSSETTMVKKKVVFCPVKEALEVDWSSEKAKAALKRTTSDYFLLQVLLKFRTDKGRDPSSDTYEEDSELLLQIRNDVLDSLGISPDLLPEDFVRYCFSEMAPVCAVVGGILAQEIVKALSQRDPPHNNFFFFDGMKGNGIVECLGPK
T6 sequence (Q9UBT2 whole entry): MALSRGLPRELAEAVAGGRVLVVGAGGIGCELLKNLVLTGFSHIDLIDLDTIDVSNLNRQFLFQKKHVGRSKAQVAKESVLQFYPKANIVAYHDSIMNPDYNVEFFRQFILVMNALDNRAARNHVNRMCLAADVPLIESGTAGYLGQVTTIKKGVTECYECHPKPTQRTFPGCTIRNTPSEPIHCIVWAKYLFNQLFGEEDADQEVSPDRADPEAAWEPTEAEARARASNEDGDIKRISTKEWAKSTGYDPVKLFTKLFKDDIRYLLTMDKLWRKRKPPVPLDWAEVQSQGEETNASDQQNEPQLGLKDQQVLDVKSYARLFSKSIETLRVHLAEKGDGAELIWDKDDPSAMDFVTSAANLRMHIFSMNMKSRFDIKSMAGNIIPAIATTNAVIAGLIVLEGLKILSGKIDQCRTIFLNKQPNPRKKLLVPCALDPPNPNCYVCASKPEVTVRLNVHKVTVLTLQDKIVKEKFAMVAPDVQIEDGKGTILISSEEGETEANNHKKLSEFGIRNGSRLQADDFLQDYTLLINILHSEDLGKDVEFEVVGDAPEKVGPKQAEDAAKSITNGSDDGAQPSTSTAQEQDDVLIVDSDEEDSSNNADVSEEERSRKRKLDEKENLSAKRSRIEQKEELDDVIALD
T1 sequence (Q9NZJ5 whole entry): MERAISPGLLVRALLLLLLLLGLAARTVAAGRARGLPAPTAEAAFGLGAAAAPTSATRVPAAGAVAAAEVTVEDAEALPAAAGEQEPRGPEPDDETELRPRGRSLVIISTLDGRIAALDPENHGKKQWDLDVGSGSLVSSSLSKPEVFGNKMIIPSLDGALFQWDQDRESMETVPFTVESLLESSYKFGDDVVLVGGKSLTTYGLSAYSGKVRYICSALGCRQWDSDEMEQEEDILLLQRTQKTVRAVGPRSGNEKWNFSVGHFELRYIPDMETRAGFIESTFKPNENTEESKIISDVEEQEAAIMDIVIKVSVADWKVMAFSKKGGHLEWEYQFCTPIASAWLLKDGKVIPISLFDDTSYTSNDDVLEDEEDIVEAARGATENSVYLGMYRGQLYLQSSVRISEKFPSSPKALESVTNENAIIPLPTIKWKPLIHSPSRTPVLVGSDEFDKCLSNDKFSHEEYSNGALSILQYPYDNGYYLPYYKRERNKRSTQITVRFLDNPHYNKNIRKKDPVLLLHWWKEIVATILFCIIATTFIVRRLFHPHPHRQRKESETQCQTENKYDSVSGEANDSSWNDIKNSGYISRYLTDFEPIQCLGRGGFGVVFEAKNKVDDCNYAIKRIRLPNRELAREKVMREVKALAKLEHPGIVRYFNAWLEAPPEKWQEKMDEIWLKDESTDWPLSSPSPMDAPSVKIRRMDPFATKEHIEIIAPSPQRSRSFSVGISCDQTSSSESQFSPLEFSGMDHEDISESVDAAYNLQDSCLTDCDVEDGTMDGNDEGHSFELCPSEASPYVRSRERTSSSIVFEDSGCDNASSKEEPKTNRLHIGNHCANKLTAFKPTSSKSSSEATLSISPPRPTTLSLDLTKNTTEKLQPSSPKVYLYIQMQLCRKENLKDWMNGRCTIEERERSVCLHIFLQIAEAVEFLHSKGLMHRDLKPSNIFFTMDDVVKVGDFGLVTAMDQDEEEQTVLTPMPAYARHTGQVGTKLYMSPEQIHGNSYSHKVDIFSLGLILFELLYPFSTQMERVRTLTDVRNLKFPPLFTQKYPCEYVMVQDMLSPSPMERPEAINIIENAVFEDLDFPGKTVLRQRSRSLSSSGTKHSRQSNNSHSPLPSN
Wee1-like protein kinase, sequence (P30291 whole entry): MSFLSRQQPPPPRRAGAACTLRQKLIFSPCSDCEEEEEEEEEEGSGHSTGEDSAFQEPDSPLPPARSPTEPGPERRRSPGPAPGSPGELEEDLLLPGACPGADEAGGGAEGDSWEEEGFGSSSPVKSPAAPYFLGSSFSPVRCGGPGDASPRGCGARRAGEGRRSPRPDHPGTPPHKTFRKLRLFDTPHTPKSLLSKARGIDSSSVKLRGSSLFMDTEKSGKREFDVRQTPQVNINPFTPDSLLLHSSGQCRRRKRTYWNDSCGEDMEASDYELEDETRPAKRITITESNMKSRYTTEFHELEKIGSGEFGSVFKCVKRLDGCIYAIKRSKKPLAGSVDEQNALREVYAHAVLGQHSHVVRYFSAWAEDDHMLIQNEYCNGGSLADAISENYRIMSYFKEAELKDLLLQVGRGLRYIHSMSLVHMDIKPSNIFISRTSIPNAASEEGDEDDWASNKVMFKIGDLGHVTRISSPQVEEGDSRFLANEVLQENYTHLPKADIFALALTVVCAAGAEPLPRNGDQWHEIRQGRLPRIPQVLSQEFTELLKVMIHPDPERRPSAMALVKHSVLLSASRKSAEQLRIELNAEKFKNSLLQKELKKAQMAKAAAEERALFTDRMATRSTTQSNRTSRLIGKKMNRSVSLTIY
Beta-galactosidase, sequence (Q8VNN2 whole entry): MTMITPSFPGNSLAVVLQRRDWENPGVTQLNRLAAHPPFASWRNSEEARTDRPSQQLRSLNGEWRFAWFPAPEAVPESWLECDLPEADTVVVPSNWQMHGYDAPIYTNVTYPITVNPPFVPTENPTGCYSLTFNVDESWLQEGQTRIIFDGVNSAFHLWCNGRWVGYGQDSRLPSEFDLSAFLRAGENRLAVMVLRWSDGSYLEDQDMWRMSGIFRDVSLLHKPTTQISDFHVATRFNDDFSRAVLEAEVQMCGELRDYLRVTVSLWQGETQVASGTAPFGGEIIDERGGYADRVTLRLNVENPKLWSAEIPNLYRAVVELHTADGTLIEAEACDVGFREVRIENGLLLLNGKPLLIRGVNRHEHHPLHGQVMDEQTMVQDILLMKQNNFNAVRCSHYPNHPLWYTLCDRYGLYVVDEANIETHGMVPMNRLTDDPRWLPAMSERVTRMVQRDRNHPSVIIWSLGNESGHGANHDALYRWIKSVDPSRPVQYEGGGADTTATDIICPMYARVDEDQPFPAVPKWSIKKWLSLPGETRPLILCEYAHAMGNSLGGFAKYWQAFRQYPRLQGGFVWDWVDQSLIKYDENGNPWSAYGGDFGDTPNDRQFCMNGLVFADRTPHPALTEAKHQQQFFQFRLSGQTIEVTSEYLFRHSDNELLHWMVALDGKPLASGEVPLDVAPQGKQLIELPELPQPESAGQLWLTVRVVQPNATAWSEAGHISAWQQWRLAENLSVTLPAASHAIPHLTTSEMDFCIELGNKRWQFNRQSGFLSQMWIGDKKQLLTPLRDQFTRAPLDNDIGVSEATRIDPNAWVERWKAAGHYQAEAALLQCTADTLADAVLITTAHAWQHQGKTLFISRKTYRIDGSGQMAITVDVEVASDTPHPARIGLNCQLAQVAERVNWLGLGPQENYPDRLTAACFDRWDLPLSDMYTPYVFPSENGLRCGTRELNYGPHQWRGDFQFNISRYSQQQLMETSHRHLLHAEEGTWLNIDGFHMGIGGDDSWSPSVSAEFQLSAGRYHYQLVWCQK
Cytochrome P450 2D6, sequence (P10635 whole entry): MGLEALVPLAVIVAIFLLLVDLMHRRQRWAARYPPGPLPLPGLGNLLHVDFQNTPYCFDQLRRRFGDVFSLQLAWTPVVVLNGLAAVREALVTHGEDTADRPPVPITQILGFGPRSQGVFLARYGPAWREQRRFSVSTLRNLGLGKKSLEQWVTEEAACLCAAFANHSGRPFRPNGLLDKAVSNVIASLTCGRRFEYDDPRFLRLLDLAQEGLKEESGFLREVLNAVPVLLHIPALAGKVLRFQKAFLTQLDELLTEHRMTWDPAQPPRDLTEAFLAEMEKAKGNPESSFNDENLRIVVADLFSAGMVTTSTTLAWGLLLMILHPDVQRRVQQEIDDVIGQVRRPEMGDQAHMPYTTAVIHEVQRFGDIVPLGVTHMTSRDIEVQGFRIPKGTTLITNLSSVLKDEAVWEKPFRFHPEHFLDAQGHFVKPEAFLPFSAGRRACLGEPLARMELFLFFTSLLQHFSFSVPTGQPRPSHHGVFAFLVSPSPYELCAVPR
Photoreceptor-specific nuclear receptor, sequence (Q9Y5X4 whole entry): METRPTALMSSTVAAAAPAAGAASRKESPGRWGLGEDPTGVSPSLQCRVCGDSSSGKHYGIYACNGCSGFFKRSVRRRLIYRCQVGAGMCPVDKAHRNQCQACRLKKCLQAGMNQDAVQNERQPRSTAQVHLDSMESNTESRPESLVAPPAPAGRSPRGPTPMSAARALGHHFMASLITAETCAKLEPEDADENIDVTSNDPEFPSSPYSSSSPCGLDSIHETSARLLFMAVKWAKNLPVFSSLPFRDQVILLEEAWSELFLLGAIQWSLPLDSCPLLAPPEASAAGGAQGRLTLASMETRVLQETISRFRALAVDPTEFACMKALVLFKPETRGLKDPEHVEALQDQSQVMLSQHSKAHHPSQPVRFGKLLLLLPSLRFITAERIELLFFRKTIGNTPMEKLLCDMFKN

Structure (SMILES): O=C(Nc1ccc(NC(=O)c2cc3ccccc3o2)cc1)c1ccc2c(c1)OCCO2
- EC50 [1]: 3.02 µM (active)
- EC50 [2]: 2.35 µM (active)
- EC50 [3]: < 0.1 µM (active)
- IC50 [4]: > 80 µM (inactive)
- EC50 [5]: 12.7 µM (active)
- EC50 [6]: > 12 µM (not active)

Structure (SMILES): Cc1ccc(N/N=C/c2ccncc2)cc1
- EC50 [7]: > 38 µM (not active)
- AC50 [8]: 4.65 µM (active)
- EC50 [9]: > 50 µM (active)
- EC50 [10]: 14.4 µM (active)

Structure (SMILES): CN(Cc1ccccc1)S(=O)(=O)c1ccc(NC(=S)NC(=O)C2CCCCC2)cc1
- IC50 [11]: > 66.6 µM (inactive)
- IC50 [12]: > 66.6 µM (inactive)

Structure (SMILES): O=C(Nc1ccc2ncccc2c1)c1ccccc1
- IC50 [13]: 14.2 µM (active)
- IC50 [14]: > 100 µM (inactive)

Structure (SMILES): Cc1ccc(-n2c(=S)[nH]c3c(oc4ccccc43)c2=O)cc1
- IC50 [15]: 4.75 µM (active)
- IC50 [16]: 6.54 µM (active)

Structure (SMILES): FC(F)(F)c1cccc(Oc2ccc3c(C(F)(F)F)cc(C(F)(F)F)nc3n2)c1
- EC50 [17]: > 55.7 µM (not active)
- EC50 [18]: > 55.7 µM (not active)

Structure (SMILES): COc1cc2c(cc1OC)-c1c(OC)c(OC)cc3ccnc(c13)C2=O [OXOGLAUCINE]
- AC50 [19]: 39.8 µM (inconclusive)
- EC50 [3]: 7 µM (active)
- AC50 [20]: 10 µM (inconclusive)
- EC50 [21]: > 120 µM (not active)
- EC50 [22]: 68.6 µM (active)
- EC50 [5]: 9.88 µM (active)
- EC50 [23]: 834 nM (active)

Structure (SMILES): COc1ccc(/C=N/Nc2cc(C)nc(-n3nc(C)cc3C)n2)cc1
- IC50 [24]: < 100 nM (active)
- IC50 [25]: 5.81 µM (active)
- AC50 [26]: 2.42 µM (active)
- CC50 [27]: 6.97 µM (active)
- IC50 [28]: > 67 µM (not active)
- CC50 [29]: 8.36 µM (active)

Structure (SMILES): O=C(NN1C(=O)/C(=C/C=C/c2ccco2)SC1=S)c1ccncc1
- IC50 [30]: 12.3 µM (not active)
- IC50 [31]: 14 µM (not active)
- IC50 [32]: > 100 µM (inactive)
- IC50 [33]: > 80 µM (inactive)
- IC50 [34]: 5.08 µM (active)
- EC50 [35]: > 100 µM (inactive)
- IC50 [36]: 13.5 µM (active)
- IC50 [37]: 11.1 µM (active)
- IC50 [38]: 530 nM (active)
- IC50 [39]: 6.1 µM (active)

Structure (SMILES): COc1cccc(N(C(=O)c2cc[nH]n2)C2(C(=O)Nc3c(C)cccc3C)CCCCC2)c1
- EC50 [40]: 52.9 µM (not active)

Structure (SMILES): COc1ccccc1-c1ccc(SCc2ccccc2F)nn1
- EC50 [41]: > 49.7 µM (not active)
- EC50 [42]: > 49.7 µM (not active)
